The record followed here is patent publication US20100003217A1, “Compounds and Pharmaceutical Compositions for the Treatment of Viral Infections” (priority 2008, published 2010).

In one data set the test system is GS4.1 cells. The experiment in a line: Cytotoxicity assay (MTS), GS4.1 cells. Format: cell-based, human. As to conditions: 3 days (NS4A-ELISA Assay). How it is done: The cytotoxicity assay measures the viability of cells after treatment with a test compound for 3 days in either GS4.1 cells or Zluc cells. […] The cytotoxicity assay is summarized as follows. Ninety-six-well tissue culture plates were seeded with GS4.1 or Zluc cells. Antiviral compound solutions were made up freshly in medium as 2×-concentrated stocks. Eight additional 3-fold drug dilutions were prepared from these stocks in medium for a total of 9 dilutions. At least four hours after the cells were seeded, drug treatment was initiated by adding one volume of each 2×-concentrated drug dilution to one volume of cells/medium in the tissue culture plates. Cells were then incubated for 3 days at 37° C./5% CO2. After 3 days of treatment, the CellTiter 96® Aqueous One Solution cell proliferation assay (Promega) was performed by adding the MTS solution to each well. The plates were then incubated at 37° C./5% CO2 for 3.5 hours. Plates were then read in a Victor^3V 1420 multilabel counter (Perkin Elmer) and CC50 concentrations were determined using Microsoft Excel and XLfit 4.1 software.

The subject of data set [1] is HCV genotype 1b replicon (Zluc cells). Description: HCV luciferase replicon assay. The data set is classed as cell-based, hepatitis C virus. As to conditions: 3 days. How it is done:
The HCV luciferase replicon assay measures the ability of a test compound to inhibit HCV replication in cell culture after 3 days of treatment in a human hepatoma cell line (Huh-7) bearing the HCV genotype 1b replicon and a luciferase-neomycin phosphotransferase fusion gene. The inhibition of HCV replication was measured by quantification of luciferase protein expression. The HCV luciferase replicon was constructed by fusing a luciferase gene to the amino terminus of the neomycin phosphotransferase gene of the ZS11 HCV replicon. The ZS11 HCV replicon (Zhu Q, Guo J-T, and Seeger C, 2003) is derived from the SP1 replicon, but contains three cell culture-adapted mutations: E1202G (NS3), S22041 (NS5A), and D2254E (NS5A). These mutations allow for efficient in vitro replication. The luciferase reporter gene was amplified from the pGL4.13[luc2/SV40] vector (Promega Corp.). The replicon resulting from the luciferase-neomycin fusion (ZS11-luc) was stably-transfected into Huh-7 cells, yielding the Zluc cell line.
The luciferase replicon assay is summarized as follows: Solid white 96-well tissue culture plates (BD Falcon) were seeded with Zluc cells. Antiviral compound solutions were made up freshly in medium as 2×-concentrated stocks. Eight additional 3-fold drug dilutions were prepared from these stocks in medium for a total of 9 dilutions. At least four hours after Zluc cells were seeded, drug treatment was initiated by adding one volume of each 2×-concentrated drug dilution to one volume of cells/medium in the tissue culture plates. Cells were then incubated for 3 days at 37° C./5% CO2.
The media/compound was then removed from the plates and the ONE-glo Luciferase assay reagent (Promega) was added to each well. The assay plates were shaken for 3 minutes at room temperature and luciferase activity for each well was measured with a 1 sec read time on the Victor^3V multilabel counter using a 700 nm cut-off filter (Perkin Elmer). EC50 values were calculated from dose response curves from the resulting best-fit equations determined by Microsoft Excel and XLfit 4.1 software.
On the technique in general: In antiviral work, replicon cells carry a viral genome segment that copies itself.

The subject of data set [2] is HCV genotype 1b replicon (GS4.1 cells). Description: HCV replicon assay (NS4A ELISA). Format: cell-based, hepatitis C virus. As to conditions: 3 days. On the procedure: The biological activity of Compound 1, diastereomer 1 and diastereomer 2 was measured by monitoring expression of the NS4A protein by enzyme-linked immunosorbent assay (ELISA) and by luciferase assay as described below:
The HCV replicon assay measures the ability of a test compound to inhibit HCV replication in cell culture after 3 days of treatment in a human hepatoma cell line (Huh-7) bearing the HCV genotype 1b replicon (GS4.1 cells). The inhibition of HCV replication was measured by quantification of viral NS4A protein using an enzyme-linked immunosorbent assay (ELISA). […] Additionally, the replicon contains the neomycin phosphotransferase gene under the control of the HCV promoter (Source: Dr. Christoph Seeger, Fox Chase Cancer Center, Philadelphia, Pa.).
The NS4A ELISA assay is summarized as follows. Ninety-six-well tissue culture plates were seeded with GS4.1 cells. Antiviral compound solutions were made up freshly in medium as 2×-concentrated stocks. Eight additional 3-fold drug dilutions were prepared from these stocks in medium for a total of 9 dilutions. At least four hours after GS4.1 cells were seeded, drug treatment was initiated by adding one volume of each 2× concentrated drug dilution to one volume of cells/medium in the tissue culture plates. Cells were then incubated for 3 days at 37° C./5% CO2.
The media/compound was then removed from the plates and cells were fixed with acetone:methanol, washed three times with a wash solution, and then blocked for 1 hour with 10% fetal bovine serum in a balanced salt solution. Cells were washed three times and incubated with an anti-hepatitis C NS4A monoclonal antibody (Virogen Corp.) for 2 hours at 37° C. […] The reaction was stopped with diluted sulfuric acid (Mallinckrodt Chemicals) and absorbance measured on a Victor^3V 1420 multilabel counter (Perkin Elmer). EC50 values were calculated from dose response curves from the resulting best-fit equations determined by Microsoft Excel and XLfit 4.1 software.

Another data set concerns pig liver esterase. Description: Incubation with pig liver esterase. Format: in vitro ADME. The settings on record: Esterase 14 U, 60 min, 10 μM. How it is done:
(§1) Pig liver esterase (14 U) suspended in incubation buffer (0.1 M potassium phosphate, pH 7.4) was incubated for 60 min at 37° C. with 10 μM Compound 1 from a stock solution in DMSO (final DMSO concentration was 0.1%); reaction was initiated with the addition of test article. Incubations with no protein served as controls. Reactions were terminated by the addition of 0.1 mL of stop solution (acetonitrile). The samples were vortex-mixed for 30 sec and then centrifuged at 10,000×g for 10 min. The supernatant was dried using a Labconco CentriVap concentrator and the dry residue reconstituted in water, transferred to an HPLC glass vial and analyzed by HPLC-UV method 2 (described above).
(§2) Metabolic stability of the proposed metabolites was conducted by incubating the chemically synthesized standards Compound 2, Compound 4 and Compound 3 as described above for Compound 1. When possible, formation of Compound 5 was verified by incubating samples with alkaline phosphatase (10 U) for 60 min at 37° C.

A short description of data set [3]: Stability in monkey liver microsomes. Format: in vitro ADME. The settings on record: monkey microsomes 1 mg/mL, 60 min, 50 μM. On the procedure:
(§3) Disappearance of parent Compound 1 was used to evaluate the in vitro metabolism thereof. Relative levels of unchanged Compound 1 were measured by HPLC-UV method 1. Residual Compound 1 is reported as percent difference from time zero or control. The HPLC-UV system was as follows:
(§4) Incubations with liver microsomes or cytosol were conducted in a final volume of 0.1 mL per incubation time point. […] DMSO (final DMSO concentration was 0.1%) was incubated at 37° C. from 0-60 min with pooled microsomal protein (1.0 mg/mL), suspended in incubation buffer (0.1 M potassium phosphate, pH 7.4, 5 mM MgCl2, and 0.1 mM EDTA). The microsomal reaction was initiated by the addition of NADPH (3 mM final concentration). Incubations with (a) no protein or (b) no NADPH served as controls. Reactions were terminated by the addition of 0.2 mL of stop solution (acetonitrile). The samples were vortex-mixed for 30 sec and then centrifuged at 10,000×g for 10 min. The supernatant was dried using a Labconco CentriVap concentrator and the dry residue reconstituted in water, transferred to an HPLC glass vial and analyzed by HPLC-UV method 1 (described above).
as §2
In general terms: Microsomes from liver hold many membrane-bound enzymes, among them those of drug oxidation.

The nature of data set [4]: Incubation with monkey liver cytosol. The settings on record: monkey cytosol 1 mg/mL, 2 hours, 10 μM. The data set is classed as in vitro ADME. How it is done:
as §1, with “Pooled” for “Pig”, “cytosol (1.0 mg protein/mL)” for “esterase (14 U)”, “2 hours” for “60 min”, “control.” for “controls.”
as §2

The nature of data set [5]: Incubation with rat liver cytosol. The data set is classed as in vitro ADME. The settings on record: rat cytosol 1 mg/mL, 2 hours, 10 μM. On the procedure: as §1, with “Pooled” for “Pig”, “cytosol (1.0 mg protein/mL)” for “esterase (14 U)”, “2 hours” for “60 min”, “control.” for “controls.”
as §2

Data set [6] in a line: Stability in human liver microsomes. As to conditions: human microsomes 1 mg/mL, 60 min, 50 μM. Format: in vitro ADME. How it is done:
as §3
Incubations with liver microsomes or cytosol were conducted in a final volume of 0.1 mL per incubation time point. […] The microsomal reaction was initiated by the addition of NADPH (3 mM final concentration). Incubations with (a) no protein or (b) no NADPH served as controls. Reactions were terminated by the addition of 0.2 mL of stop solution (acetonitrile). The samples were vortex-mixed for 30 sec and then centrifuged at 10,000×g for 10 min. The supernatant was dried using a Labconco CentriVap concentrator and the dry residue reconstituted in water, transferred to an HPLC glass vial and analyzed by HPLC-UV method 1 (described above).
as §2

Data set [7] in a line: Incubation with human liver cytosol. Format: in vitro ADME. As to conditions: human cytosol 1 mg/mL, 2 hours, 10 μM. How it is done:
as §1, with “Pooled” for “Pig”, “cytosol (1.0 mg protein/mL)” for “esterase (14 U)”, “2 hours” for “60 min”, “control.” for “controls.”
as §2

The nature of data set [8]: Stability in rat liver microsomes. The settings on record: rat microsomes 1 mg/mL, 60 min, 50 μM. The data set is classed as in vitro ADME. On the procedure:
as §3, §4, §2

For orientation: CC50 means the concentration that lowers cell viability or growth by half. A word on the EC50: it is the midpoint of the concentration-response curve.

Consider `CC(C)(CO)C(=O)SCCOP(=O)(NCc1ccccc1)OC[C@H]1O[C@@H](n2cnc3c(=O)[nH]c(N)nc32)[C@](C)(O)[C@@H]1O` (single isomer, unassigned; diastereomer 1) [Diastereomer 1], for which the CC50 in the data set on GS4.1 cells is more than 100000 nM. For the same compound, the figures for the EC50 in [1] and in [2] were 165 ± 23 nM and 704 ± 372 nM, respectively.

With `C[C@@]1(O)[C@H](O)[C@@H](COP(N)(=O)O)O[C@H]1n1cnc2c(=O)[nH]c(N)nc21` [Compound 4, {9-[(2R)2-C-methyl-β-D-ribo-furanosyl]-guanin}-5′-yl phosphoramidate], the “Residual compound following incubation with pig liver esterase” value in the data set with pig liver esterase is listed as 100%. Further, the “% Residual compound following incubation with liver microsomes” value was 83% in data set [3] (NADPH); 100% in data set [3] (No Cofactor); 93% in data set [6] (NADPH); 100% in data set [6] (No Cofactor); 89% in [8] (NADPH); 100% in data set [8] (No Cofactor). The results for the “Residual compound following incubation with liver cytosol” value in data set [4], in data set [5] and in data set [7] were 103%, 101% and 100%, respectively.
